# Patent EP1673354B1, “ARYLINDENOPYRIDINES AND ARYLINDENOPYRIMIDINES AND THEIR USE AS ADENOSINE A2A RECEPTOR ANTAGONISTS” (Ortho-McNeil Pharmaceutical, Inc., priority 2003, dated 2005)
# Tests used:
# Adenosine A1 receptor = target: T1, Adenosine A1 receptor (Homo sapiens, UniProt P30542); test: A1 antagonist function (no method described); format: cell-based
# T1 sequence (P30542 1-326): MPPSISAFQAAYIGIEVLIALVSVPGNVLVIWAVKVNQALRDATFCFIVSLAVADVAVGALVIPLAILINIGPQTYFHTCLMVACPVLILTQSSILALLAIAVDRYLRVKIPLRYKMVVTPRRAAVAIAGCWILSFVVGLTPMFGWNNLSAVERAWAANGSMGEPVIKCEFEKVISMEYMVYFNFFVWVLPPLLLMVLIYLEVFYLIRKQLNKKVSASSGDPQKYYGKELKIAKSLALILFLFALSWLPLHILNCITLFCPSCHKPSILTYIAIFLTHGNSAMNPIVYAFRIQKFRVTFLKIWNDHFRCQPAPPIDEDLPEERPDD
# C57bl/6 mice = test: Haloperidol-induced catalepsy study in C57bl/6 mice; format: in vivo; details: orally dosed at 10 mg/kg; haloperidol 1.5 mg/kg s.c.; test 1 hour after oral dose
# Procedure: Haloperidol-induced catalepsy study in C57bl/6 mice
# Mature male C57bl/6 mice (9-12 week old from ACE) were housed two per cage in a rodent room. Room temperature was maintained at 64-79 degrees and humidity at 30-70% and room lighting at 12 hrs light/12 hrs dark cycle. On the study day, mice were transferred to the study room. The mice were injected subcutaneously with haloperidol (Sigma H1512, 1.0 mg/ml made in 0.3% tartaric acid, then diluted to 0.2 mg/ml with saline) or vehicle at 1.5 mg/kg, 7.5ml/kg. The mice were then placed in their home cages with access to water and food. 30 minutes later, the mice were orally dosed with vehicle (0.3% Tween 80 in saline) or compounds at 10 mg/kg, 10 ml/kg (compounds, 1mg/ml, made in 0.3% Tween 80 in saline, sonicated to obtain a uniform suspension). The mice were then placed in their home cages with access to water and food. 1 hour after oral dose, the catalepsy test was performed. A vertical metal-wire grid (1.0 cm squares) was used for the test. The mice were placed on the grid and given a few seconds to settle down and their immobility time was recorded until the mice moved their back paw(s). The mice were removed gently from the grid and put back on the grid and their immobility time was counted again. The measurement was repeated three times. The average of three measurements was used for data analysis.
# [1] = target: T2, human adenosine A2a receptors (Homo sapiens, UniProt P29274); test: Adenosine A2a receptor functional assay, antagonist mode (cAMP-inducible beta-galactosidase reporter, 50 nM NECA); format: cell-based; details: CHO-K1 cells, read-out: Ki (nM) A2a antagonist function
# T2 construct: expressed in transfected cells; host or cells: CHO-K1 cells with cAMP-inducible beta-galactosidase reporter gene
# Procedure: Adenosine A2a Receptor Functional Assay
# CHO-K1 cells overexpressing human adenosine A2a receptors and containing cAMP-inducible beta-galactosidase reporter gene were seeded at 40-50K/well into 96-well tissue culture plates and cultured for two days. On assay day, cells were washed once with 200 µL assay medium (F-12 nutrient mixture/0.1 % BSA). For agonist assay, adenosine A2a receptor agonist NECA was subsequently added and cell incubated at 37°C, 5% CO2 for 5 hrs before stopping reaction. In the case of antagonist assay, cells were incubated with antagonists for 5 minutes at R.T. followed by addition of 50 nM NECA. Cells were then incubated at 37°C, 5% CO2 for 5 hrs before stopping experiments by washing cells with PBS twice. 50 µL 1X lysis buffer (Promega, 5X stock solution, needs to be diluted to 1X before use) was added to each well and plates frozen at -20°C. For β-galactosidase enzyme colorimetric assay, plates were thawed out at room temperature and 50 µL 2X assay buffer (Promega) added to each well. Color was allowed to develop at 37°C for 1 h or until reasonable signal appeared. Reaction was then stopped with 150 µL 1 M sodium carbonate. […] Data was analyzed in Microsoft Excel and GraphPad Prism programs.
# [2] = target: T3, human A2a adenosine receptor (Homo sapiens, UniProt P29274); test: Ligand binding assay for adenosine A2a receptor ([3H]CGS21680, HEK293 plasma membrane); details: radioligand [3H]CGS21680, HEK293 membranes, room temperature 2 hours; read-out: Ki (nM) A2a binding
# T3 construct: purchased PerkinElmer RB-HA2a; host or cells: HEK293 cell plasma membrane
# Procedure: Ligand Binding Assay for Adenosine A2a Receptor
# Ligand binding assay of adenosine A2a receptor was performed using plasma membrane of HEK293 cells containing human A2a adenosine receptor (PerkinElmer, RB-HA2a) and radioligand [^3H]CGS21680 (PerkinElmer, NET1021). Assay was set up in 96-well polypropylene plate in total volume of 200 µl by sequentially adding 20 µL1:20 diluted membrane, 130 µLassay buffer (50 mM Tris·HCl, pH7.4 10 mM MgCl2, 1 mM EDTA) containing [^3H] […] Nonspecific binding was determined by […] NECA. Reaction was carried out at room temperature for 2 hours before filtering through 96-well GF/C filter plate pre-soaked in 50 mM Tris·HCl, pH7.4 containing 0.3% polyethylenimine. Plates were then washed 5 times with cold 50 mM Tris·HCl, pH7.4, dried and sealed at the bottom. Microscintillation fluid 30 µl was added to each well and the top sealed. Plates were counted on Packard Topcount for [^3H]. Data was analyzed in Microsoft Excel and GraphPad Prism programs.
# T2 sequence (P29274 whole entry): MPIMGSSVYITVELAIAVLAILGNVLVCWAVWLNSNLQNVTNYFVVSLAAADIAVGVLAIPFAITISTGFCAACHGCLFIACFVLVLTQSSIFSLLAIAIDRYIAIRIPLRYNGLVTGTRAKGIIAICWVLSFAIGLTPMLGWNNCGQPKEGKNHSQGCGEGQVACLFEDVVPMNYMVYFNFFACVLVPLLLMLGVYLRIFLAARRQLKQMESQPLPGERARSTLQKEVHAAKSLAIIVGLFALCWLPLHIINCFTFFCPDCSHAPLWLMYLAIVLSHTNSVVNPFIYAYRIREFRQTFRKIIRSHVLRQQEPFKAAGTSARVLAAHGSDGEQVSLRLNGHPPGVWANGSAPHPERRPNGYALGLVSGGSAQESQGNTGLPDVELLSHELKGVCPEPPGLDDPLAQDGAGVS
# T3 sequence (P29274 whole entry): as above
SMILES,Ki (Adenosine A1 receptor),Ki [1],Ki [2],inhibition of haloperidol-induced catalepsy (C57bl/6 mice)
"Nc1nc(-c2ccco2)c2c(n1)-c1ccccc1C2=O [Compound 3, 2-amino-4-furan-2-yl-indeno[1,2-d]pyrimidin-5-one]",0.288 nM,–,–,90%
"CN(C)CCOC(=O)c1c(N)nc(-c2ccco2)c2c1-c1ccccc1C2=O [Compound 70, 9H-indeno[2,1-c]pyridine-4-carboxylic acid, 3-amino-1-furan-2-yl-9-oxo-, 2-dimethylamino-ethyl ester]",20.1 nM,0.44 nM,9.89 nM,87%
N#Cc1c(N)nc(-c2cccnc2)c2c1-c1ccccc1C2=O [Compound 68],34.8 nM,0.73 nM,7.59 nM,–
Nc1nc(-c2ccc(F)cc2)c2c(n1)-c1ccccc1C2=O [Compound 38],9.44 nM,0.956 nM,2.34 nM,–
CNc1nc(-c2ccccc2)c2c(n1)-c1ccccc1C2=O [Compound 24],5.99 nM,> 3000 nM,30.3 nM,–
C=CCCc1nc(N)c(C#N)c2c1C(=O)c1ccccc1-2 [Compound 94],36 nM,> 1000 nM,49.5 nM,–
"CN1CCCC1COC(=O)c1c(N)nc(-c2ccco2)c2c1-c1ccccc1C2=O (stereo not drawn) [Compound 82, 9H-indeno[2,1-c]pyridine-4-carboxylic acid, 3-amino-1-furan-2-yl-9-oxo-, 1-methyl-pyrrolidin-2-ylmethyl ester]",29.6 nM,1.36 nM,20.2 nM,–
CSc1nc(N)nc2c1C(=O)c1c(N)cccc1-2 [Compound 18],189 nM,> 3000 nM,318 nM,–
CC(CN(C)C)OC(=O)c1c(N)nc(-c2ccco2)c2c1-c1ccccc1C2=O (stereo not drawn) [Compound 96],52.5 nM,10.1 nM,48.5 nM,–
CSc1nc(N)nc2c1C(=O)c1ccccc1-2 [Compound 41],> 3000 nM,575 nM,88 nM,–
Nc1nc(-c2ccco2)c2c(n1)-c1c(F)cccc1C2=O [Compound 36],2.52 nM,0.052 nM,4.37 nM,–
N#Cc1c(N)nc(C2CCCCC2)c2c1-c1ccccc1C2=O [Compound 95],110 nM,> 1000 nM,338 nM,–
COC(=O)C1CCCCN1Cc1cccc2c1C(=O)c1c(-c3ccccc3)nc(N)nc1-2 (stereo not drawn) [Compound 54],19.6 nM,3.19 nM,40.8 nM,–
Nc1nc(-c2ccccc2)c2c(c1C(=O)OCCCN1CCOCC1)-c1ccccc1C2=O [Compound 84],27.4 nM,24.7 nM,174 nM,–
Nc1nc(-c2ccco2)c2c(n1)-c1c(Cl)ccc(Cl)c1C2=O [Compound 26],3.13 nM,0.88 nM,34.6 nM,–
Nc1nc(-c2ccsc2)c2c(n1)-c1ccccc1C2=O [Compound 15],3.46 nM,0.258 nM,3.23 nM,–
N#Cc1c(N)nc(-c2ccco2)c2c1-c1ccccc1C2O (stereo not drawn) [Compound 89],11.2 nM,1.12 nM,5.85 nM,–
CN1CCN(C(=O)c2c(N)nc(-c3ccco3)c3c2-c2ccccc2C3=O)CC1 [Compound 80],56 nM,15.9 nM,69.1 nM,–

# Now from value to molecule, other results behind:
Ki (Adenosine A1 receptor),Ki [1],Ki [2],SMILES,inhibition of haloperidol-induced catalepsy (C57bl/6 mice)
1.47 nM,0.55 nM,13.6 nM,Nc1nc(-c2ccco2)c2c(n1)-c1cc(C(F)(F)F)ccc1C2=O [Compound 23],–
10.3 nM,35.6 nM,5.16 nM,Nc1nc(-c2cccc(O)c2)c2c(n1)-c1ccccc1C2=O [Compound 13],–
7.28 nM,5.7 nM,14.7 nM,COc1cccc(-c2nc(N)c(C#N)c3c2C(=O)c2ccccc2-3)c1 [Compound 74],–
107 nM,18.3 nM,94.4 nM,CCN(CC)Cc1cccc2c1C(=O)c1c(-c3ccccc3)nc(N)nc1-2 [Compound 52],–
2.42 nM,3.39 nM,17.2 nM,N#Cc1c(N)nc(-c2ccc(F)cc2)c2c1-c1ccccc1C2=O [Compound 71],–
> 500 nM,22.1 nM,33 nM,CN(C)CCNC(=O)c1c(N)nc(-c2ccco2)c2c1-c1ccccc1C2=O [Compound 76],–
3.51 nM,0.053 nM,0.376 nM,Nc1nc(-c2ccco2)c2c(n1)-c1c(N)cccc1C2=O [Compound 21],–
3.07 nM,0.143 nM,2.86 nM,COc1cccc2c1C(=O)c1c(-c3ccco3)nc(N)nc1-2 [Compound 37],–
6.24 nM,2.54 nM,12.6 nM,N#Cc1c(N)nc(-c2cccs2)c2c1-c1ccccc1C2=O [Compound 72],–
> 300 nM,57.7 nM,202 nM,CN1CCCC1COC(=O)c1c(N)nc(-c2ccccc2)c2c1-c1ccccc1C2=O (stereo not drawn) [Compound 90],–
7.4 nM,0.208 nM,3.93 nM,Nc1nc(-c2ccoc2)c2c(n1)-c1ccccc1C2=O [Compound 44],–
5.22 nM,0.169 nM,1.75 nM,Nc1nc(-c2ccco2)c2c(n1)-c1ccc(Br)cc1C2=O [Compound 16],–
111 nM,67.1 nM,6.3 nM,Nc1nc(-c2ccco2)c2c(n1)-c1cccc(O)c1C2=O [Compound 17],–
117 nM,74.9 nM,200 nM,CN1CCN(CCCOC(=O)c2c(N)nc(-c3ccccc3)c3c2-c2ccccc2C3=O)CC1 [Compound 83],–
172 nM,32.5 nM,33.5 nM,COc1ccccc1-c1nc(N)nc2c1C(=O)c1ccccc1-2 [Compound 12],–
27.1 nM,9.64 nM,5.36 nM,Nc1nc(-c2cccnc2)c2c(n1)-c1ccccc1C2=O [Compound 5],–
53 nM,234 nM,44.6 nM,COc1ccc(-c2nc(N)nc3c2Cc2ccccc2-3)cc1 [Compound 1],–
15.6 nM,2.63 nM,0.885 nM,Nc1nc(-c2ccco2)c2c(n1)-c1ccccc1C2 [Compound 4],–
4.37 nM,0.618 nM,13.4 nM,N#Cc1c(N)nc(-c2cccc(F)c2)c2c1-c1ccccc1C2=O [Compound 67],–
2.75 nM,0.055 nM,14.2 nM,Nc1nc(-c2ccco2)c2c(n1)-c1ccc(C(F)(F)F)cc1C2=O [Compound 22],–
14.7 nM,22.1 nM,208 nM,Nc1nc(-c2ccccc2)c2c(c1C(=O)OCCN1CCOCC1)-c1ccccc1C2=O [Compound 91],–
> 300 nM,48.9 nM,130 nM,Nc1nc(-c2ccccc2)c2c(c1C(=O)OCCN1CCCC1)-c1ccccc1C2=O [Compound 88],–
17.4 nM,5.69 nM,173 nM,Nc1nc(-c2ccco2)c2c(n1)-c1cc(Cl)c(Cl)cc1C2=O [Compound 25],–
